Columns and labels:
Assay type in all cases: in vivo
[1] = system: Yellow Fever Mosquito (Aedes aegypti, "YFM"); experiment: Bioassay on yellow fever mosquito larvae, 96-well plate assay; conditions: 4000 ppm DMSO master solution diluted with 90:10 water:acetone; about 1 day-old larvae; room temperature; scored after 3 days
Experimental: Bioassays On Yellow Fever Mosquito (Aedes aegypti, “YFM”)
Certain molecules disclosed in this document were tested against YFM using procedures described in the following paragraph. In the reporting of the results, the “YFM Rating Table” was used (See Table Section).
Master plates containing 400 μg of a molecule dissolved in 100 μL of dimethyl sulfoxide (DMSO) (equivalent to a 4000 ppm solution) are used. A master plate of assembled molecules contains 15 μL per well. To this plate, 135 μL of a 90:10 water:acetone mixture is added to each well. A robot (Biomek® NXP Laboratory Automation Workstation) is programmed to dispense 15 μL aspirations from the master plate into an empty 96-well shallow plate (“daughter” plate). There are 6 reps (“daughter” plates) created per master. The created daughter plates are then immediately infested with YFM larvae.
The day before plates are to be treated, mosquito eggs are placed in Millipore water containing liver powder to begin hatching (4 g. into 400 mL). After the daughter plates are created using the robot, they are infested with 220 μL of the liver powder/larval mosquito mixture (about 1 day-old larvae). After plates are infested with mosquito larvae, a non-evaporative lid is used to cover the plate to reduce drying. Plates are held at room temperature for 3 days prior to grading. After 3 days, each well is observed and scored based on mortality.

[2] = system: Beet Armyworm (Spodoptera exigua, "BAW"); experiment: Bioassay on beet armyworm, 128-well diet tray assay; conditions: 168 h, 50 μg/cm^2 of test compound on artificial diet, second instar larvae, 25° C., five to seven days, average of eight wells, read-out: BAW % Control (or Mortality) rating
Experimental: (§1) Bioassays on Beet Armyworm (Spodoptera exigua, “BAW”) and Cabbage Looper (Trichoplusia ni, “CL”)
(§2) Certain molecules disclosed in this document were tested against BAW and CL using procedures described in the following examples. In the reporting of the results, the “BAW & CL Rating Table” was used (See Table Section).
Bioassays on BAW were conducted using a 128-well diet tray assay. one to five second instar BAW larvae were placed in each well (3 mL) of the diet tray that had been previously filled with 1 mL of artificial diet to which 50 μg/cm^2 of the test compound (dissolved in 50 μL of 90:10 acetone-water mixture) had been applied (to each of eight wells) and then allowed to dry. Trays were covered with a clear self-adhesive cover and held at 25° C., 14:10 light-dark cycle for five to seven days. Percent mortality was recorded for the larvae in each well; activity in the eight wells was then averaged. The results are indicated in the table entitled “Table ABC: Biological Results” (See Table Section).

[3] = system: Cabbage Looper (Trichoplusia ni, "CL"); experiment: Bioassay on cabbage looper, 128-well diet tray assay; conditions: 168 h, 50 μg/cm^2 of test compound on artificial diet, second instar larvae, 25° C., five to seven days, average of eight wells, read-out: CL % Control (or Mortality) rating
Experimental: as §1, §2
Bioassays on CL were conducted using a 128-well diet tray assay. one to five second instar CL larvae were placed in each well (3 mL) of the diet tray that had been previously filled with 1 mL of artificial diet to which 50 μg/cm^2 of the test compound (dissolved in 50 μL of 90:10 acetone-water mixture) had been applied (to each of eight wells) and then allowed to dry. Trays were covered with a clear self-adhesive cover and held at 25° C., 14:10 light-dark cycle for five to seven days. Percent mortality was recorded for the larvae in each well; activity in the eight wells was then averaged. The results are indicated in the table entitled “Table ABC: Biological Results” (See Table Section).

SMILES	YFM % Control (or Mortality) rating [1]	mortality at 50 µg/cm2 [2]	mortality at 50 µg/cm2 [3]
O=C(/N=C1\SCC(=O)N1c1ccc2ccccc2c1)Nc1ccc(-c2ncn(-c3ccc(OC(F)(F)F)cc3)n2)cc1F [F13, (Z)-1-(2-Fluoro-4-(1-(4-(trifluoromethoxy)phenyl)-1H-1,2,4-triazol-3-yl)phenyl)-3-(3-(naphthalen-2-yl)-4-oxothiazolidin-2-ylidene)urea]	D (No activity noticed in this bioassay)	50 to 100%	50 to 100%
O=C(/N=C1\SCC(=O)N1c1cccc2ncccc12)Nc1ccc(-c2ncn(-c3ccc(C(F)(F)F)cc3)n2)cc1F [F33, (Z)-1-(2-Fluoro-4-(1-(4-(trifluoromethyl)phenyl)-1H-1,2,4-triazol-3-yl)phenyl)-3-(4-oxo-3-(quinolin-5-yl)thiazolidin-2-ylidene)urea]	A (80-100)	50 to 100%	50 to 100%
Cc1cc(-c2ncn(-c3ccc(OC(F)(F)C(F)(F)F)cc3)n2)ccc1NC(=O)/N=C1\SCC(=O)N1c1cccc2c1ccn2C [F27, (Z)-1-(3-(1-Methyl-1H-indol-4-yl)-4-oxothiazolidin-2-ylidene)-3-(2-methyl-4-(1-(4-(perfluoroethoxy)phenyl)-1H-1,2,4-triazol-3-yl)phenyl)urea]	A (80-100)	50 to 100%	50 to 100%
Cn1ccc2c(N3C(=O)CS/C3=N\C(=O)Nc3ccc(-c4ncn(-c5ccc(OC(F)(F)F)cc5)n4)cc3F)cccc21 [F15, (Z)-1-(2-Fluoro-4-(1-(4-(trifluoromethoxy)phenyl)-1H-1,2,4-triazol-3-yl)phenyl)-3-(3-(1-methyl-1H-indol-4-yl)-4-oxothiazolidin-2-ylidene)urea]	A (80-100)	50 to 100%	50 to 100%
Cc1cc(-c2ncn(-c3ccc(OC(F)(F)C(F)(F)F)cc3)n2)ccc1NC(=O)/N=C1\SCC(=O)N1c1ccc2ccccc2c1 [F29, (Z)-1-(2-Methyl-4-(1-(4-(perfluoroethoxy)phenyl)-1H-1,2,4-triazol-3-yl)phenyl)-3-(3-(naphthalen-2-yl)-4-oxothiazolidin-2-ylidene)urea]	D (No activity noticed in this bioassay)	50 to 100%	50 to 100%
Cc1cc(-c2ncn(-c3ccc(OC(F)(F)C(F)(F)F)cc3)n2)ccc1NC(=O)/N=C1\SCC(=O)N1c1cccc2ncccc12 [F32, (Z)-1-(2-Methyl-4-(1-(4-(perfluoroethoxy)phenyl)-1H-1,2,4-triazol-3-yl)phenyl)-3-(4-oxo-3-(quinolin-5-yl)thiazolidin-2-ylidene)urea]	A (80-100)	50 to 100%	50 to 100%
CN1CCOc2c1cccc2N1C(=O)CS/C1=N\C(=O)Nc1ccc(-c2ncn(-c3ccc(OC(F)(F)F)cc3)n2)cc1F [F12, (Z)-1-(2-Fluoro-4-(1-(4-(trifluoromethoxy)phenyl)-1H-1,2,4-triazol-3-yl)phenyl)-3-(3-(4-methyl-3,4-dihydro-2H-benzo[b][1,4]oxazin-8-yl)-4-oxothiazolidin-2-ylidene)urea]	A (80-100)	50 to 100%	50 to 100%
O=C(/N=C1\SCC(=O)N1c1cccc2ccoc12)Nc1ccc(-c2ncn(-c3ccc(C(F)(F)C(F)(F)F)cc3)n2)cc1F [F21, (Z)-1-(3-(Benzofuran-7-yl)-4-oxothiazolidin-2-ylidene)-3-(2-fluoro-4-(1-(4-(perfluoroethyl)phenyl)-1H-1,2,4-triazol-3-yl)phenyl)urea]	A (80-100)	50 to 100%	50 to 100%
Cc1cc(-c2ncn(-c3ccc(OC(F)(F)C(F)(F)F)cc3)n2)ccc1NC(=O)/N=C1\SCC(=O)N1c1cccc2occc12 [F22, (Z)-1-(3-(Benzofuran-4-yl)-4-oxothiazolidin-2-ylidene)-3-(2-methyl-4-(1-(4-(perfluoroethoxy)phenyl)-1H-1,2,4-triazol-3-yl)phenyl)urea]	A (80-100)	50 to 100%	50 to 100%
O=C(/N=C1\SCC(=O)N1c1cccc2ccccc12)Nc1ccc(-c2ncn(-c3ccc(OC(F)(F)F)cc3)n2)cc1F [F16, (Z)-1-(2-Fluoro-4-(1-(4-(trifluoromethoxy)phenyl)-1H-1,2,4-triazol-3-yl)phenyl)-3-(3-(naphthalen-1-yl)-4-oxothiazolidin-2-ylidene)urea]	A (80-100)	50 to 100%	50 to 100%
O=C(/N=C1\SCC(=O)N1c1cccc2occc12)Nc1ccc(-c2ncn(-c3ccc(C(F)(F)C(F)(F)F)cc3)n2)cc1F [F20, (Z)-1-(3-(Benzofuran-4-yl)-4-oxothiazolidin-2-ylidene)-3-(2-fluoro-4-(1-(4-(perfluoroethyl)phenyl)-1H-1,2,4-triazol-3-yl)phenyl)urea]	D (No activity noticed in this bioassay)	50 to 100%	50 to 100%
Cc1cc(-c2ncn(-c3ccc(OC(F)(F)C(F)(F)F)cc3)n2)ccc1NC(=O)/N=C1\SCC(=O)N1c1cccc2ccoc12 [F23, (Z)-1-(3-(Benzofuran-7-yl)-4-oxothiazolidin-2-ylidene)-3-(2-methyl-4-(1-(4-(perfluoroethoxy)phenyl)-1H-1,2,4-triazol-3-yl)phenyl)urea]	A (80-100)	50 to 100%	50 to 100%
O=C(/N=C1\SCC(=O)N1c1cccc2c1CCOC2)Nc1ccc(-c2ncn(-c3ccc(OC(F)(F)F)cc3)n2)cc1F [F18, (Z)-1-(2-Fluoro-4-(1-(4-(trifluoromethoxy)phenyl)-1H-1,2,4-triazol-3-yl)phenyl)-3-(3-(isochroman-5-yl)-4-oxothiazolidin-2-ylidene)urea]	A (80-100)	50 to 100%	50 to 100%
